Measurements as given in patent US6410587B1, “Compounds and therapies for the prevention of vascular and non-vascular pathologies” (NeoRx Corporation, priority 1997, dated 2002).
Marks after values point to notes of the source that are not given here. Blank lines part the entries; values can stand above or below the molecule they belong to.

Columns and labels:
[1] = cited from earlier work; for covalent (hepatic) DNA adducts: rat, in vivo; for long-term carcinogenicity: rats
TGF-beta [2] = experiment: TGF-beta production by human VSMCs in culture; assay type: cell-based; settings: cultured VSMCs
Method: The amount of TGF-beta present in medium conditioned on VSMCs in the presence and absence of aspirin was measured by ELISA.
The ED50 for TGF-beta production of the complex (Cu Aspirinate) was determined in cultured rat and human VSMCs.

apoE knockout mice = experiment: Lipid lesion development in aortic sinus of apoE knockout mice (Oil Red O); settings: mouse aorta
Method: To determine the efficacy of combination therapy, and to provide evidence for synergism between aspirin and fish oil, 8-week-old female apoE knockout mice were fed aspirin or fish oil, or both, to assess the cardioprotective effects of modulating different components of the TGF-beta pathway.
Group A mice (n=10) were sacrificed at day 0. Group B mice (n=10) were fed normal chow. […] Group D mice (n=10) were fed chow containing 33 mg/kg/day fish oil (200 μg Pulse cod liver oil/g food, Seven Seas Ltd., which contains 0.9 g eicosapentaenoic acid (EPA), and 0.3 g docosahexaenoic acid (DHA)) and 3 mg/kg/day aspirin dissolved in water. Group E mice (n=10) were fed chow containing 33 mg/kg/day fish oil. Group F mice (n=10) were fed chow containing Zocor (simvastatin; Zocor tablets, Merck, Sharpe & Dohme) at 400 μg/kg/day (2 μg/g food).
Groups B-F were fed these regimens for 87 days. All mice were weighed daily for the first week and weekly thereafter. Food and water consumption over a 24 hour period were measured daily for the first 7 days and weekly thereafter.
After 87 days, mice in groups B-F were fasted overnight and then sacrificed. Serum, heart, lungs and aorta samples were collected at the time of sacrifice. The heart, lungs and aorta were removed from each mouse and rinsed in PBS, dabbed dry on tissue and embedded in Cryo-M-bed embedding medium (Bright Instruments, Huntington, U.K.) before snap freezing in liquid nitrogen. Frozen sections (4 μm thickness) of the aortic sinus region were prepared from the heart/lung/aorta blocks according to the sectioning strategy of Paigen et al. (Arteriosclerosis, 10, 316 (1990)). Sections on 5% gelatin-coated slides were stained for neutral lipid by the Oil Red O technique and counter-stained with fast green (Grainger et al., Nature Med., 1, 1067 (1995)).
The development of lipid-filled vascular lesions was determined by the quantitation of oil red O staining for neutral lipid deposited in the aortic sinus region. The area of lipid accumulation was measured using a calibrated microscope eye-piece, such that lipid droplets<50 μm^2 were ignored and contiguous regions of lipid staining>500 μm in area were classified as lesions.

[3] = TMX 40 mg/day for 10 days in TVD patients: plasma lipids, Lp(a), PAI-1
Excerpt: Patients with triple vessel disease (TVD) were defined as individuals having at least 50% stenosis of all three coronary arteries by angiography, which was confirmed by two independent observers. All had stable angina, with no myocardial infarction in the previous three months. Patients with unstable angina, poor left ventricular function, ventricular hypertrophy or diabetes were excluded.
Blood samples were taken and plasma prepared before and during the treatment period, and these samples were analyzed for TGF-beta, Lp(a), PAI-1 and lipoprotein profiles. Patients were asked to fast overnight prior to samples of blood being drawn between 9 am. and 10 a.m. the following morning. Blood samples were drawn by venepuncture of the antecubital vein with no tourniquet applied using a 21 gauge butterfly needle. Half the blood was allowed to clot for 2 hours at room temperature in polypropylene tubes. The clot was spun down (1,500×g; 15 minutes) and aliquots of the serum was stored at −100° C. The remaining blood was dispensed into Diatube H tubes (Diagnostica Stago) and cooled on ice for 15 minutes. Blood cells and platelets were spun down (6,000×g; 30 minutes) and the middle third of the supernatant was taken, carefully avoiding disturbing the pellet. This platelet-poor plasma was stored in aliquots at −100° C. until assayed.
Total plasma triglyceride, total plasma cholesterol, HDL-cholesterol, LDL-cholesterol and VLDL-cholesterol were routinely assayed in all patients.

NFkB = NFkB translocation (p65 immunostaining) and kB-luciferase reporter activity in human SMCs; assay type: cell-based
Excerpt: In cells which had been transfected with a reporter construct which has three consensus kB DNA elements fused to the luciferase gene, the amount of light which was produced when the cell lysate was exposed to luciferin and ATP was proportional to NFkB activity.

[4] = Serum lipid and lipoprotein profile of apoE knockout mice; assay type: in vivo, mouse; settings: apo(E)−/− mouse
Method: The effect of each treatment on the lipid profile of each group of mice was determined by measuring the cholesterol and triglyceride. Blood from a terminal bleed was collected in a polypropylene tube, allowed to clot at room temperature for 2 hours and then spun (1,000×g; 5 minutes). The serum supernatant was aliquoted and stored at −20° C. until assayed. Total cholesterol and total triglycerides were determined for each mouse using the cholesterol oxidase and glycerol kinase UV end-point enzymatic methods respectively (Sigma Diagnostics).

TGF-beta [5] = experiment: TMX 40 mg/day for 10 days in TVD patients: plasma TGF-beta; assay type: in vivo, human
Method: Active plus acid-activatable latent (a+1) TGF-beta levels were assayed in platelet-poor plasma using seven different assay methods. There has been debate in the literature regarding the most appropriate way to measure (a+1) TGF-beta, so to avoid difficulties specific to any particular measurement method all the available methods which have been described in the literature were used. The seven methods are:
(A) A sandwich ELISA using BDA19 and BDA5 (R&D Systems) antibodies with no activation step required.
(B) The Quantikine TGF-beta1 ELISA kit (R&D Systems) using acid/urea as the activation buffer in accordance with the manufacturer's instructions
(C) The Quantikine TGF-beta1 ELISA kit (R&D Systems) using acid alone as the activation buffer
(D) The BioTrak TGF-beta1 ELISA kit (Amersham International) using acid/urea as the activation buffer
(E) The BioTrak TGF-beta1 ELISA kit (Amersham International) using acid alone as the activation buffer in accordance with the manufacturers instructions
(F) The TGF-beta1 ELISA kit (Genzyme Diagnostics) using acid/urea as the activation buffer in accordance with the manufacturer's instructions
(G) The TGF-beta1 ELISA kit Promega Corporation) using acid alone as the activation buffer in accordance with the manufacturer's instructions
Replicate aliquots of plasma taken from the same individuals at the same time were assayed by all seven methods.
The partitioning of TGF-beta between the lipoproteins and plasma proteins was analyzed by separating the lipoprotein fraction (d<[…]) from the plasma proteins by density ultracentrifugation as described hereinabove. TGF-beta levels were assayed in both fractions using the Quantikine ELISA kit, following release and activation of TGF-beta with acetic acid and urea in accordance with the manufacturer's instructions. None of the three TGF-beta ELISAs used here detected TGF-beta in the lipoprotein fraction without prior extraction/activation with acetic acid/urea.

GR = experiment: MMTV LTR-CAT reporter in stably transfected SMCs; assay type: cell-based
Excerpt: Because ER. interacts with NFkB transcription factor complexes in a similar manner to that for GR, agents which modulate ER/NFkB interaction should modulate the inflammatory response without activating GR. To test this hypothesis, SMCs in DMEM+10% FCS were transfected with a vector comprising the MMTV LTR promoter coupled to the chloramphenicol acetyl transferase (CAT) gene and the neomycin resistance gene (neo). A stably transfected line was selected using geneticin. When these cells were treated with dexamethasone, expression of the CAT gene was elevated 3.7±0.7 fold. […] Thus, ER/NFkB modulators would be expected to circumvent the undesirable side-effect profile associated with direct transcriptional activation by GR.

[6] = rats; cited from earlier work
[7] = target: T1, recombinant extracellular domain of the type II TGF-beta receptor (R2X) (Homo sapiens, UniProt P37173); settings: no lipoprotein; previously determined; cited from earlier work
T1 construct: the recombinant extracellular domain of the type II TGF-beta receptor (R2X)

[8] = target: T1, recombinant extracellular domain of the type II TGF-beta receptor (R2X); experiment: Binding of recombinant TGF-beta to R2X (ELISA); settings: lipoprotein equivalent to 3 mM total cholesterol added; maximal value
Method: To determine whether the TGF-beta associated with lipoprotein particles was able to bind to the type II TGF-beta signaling receptor and exert biological activity in vitro, the binding of recombinant TGF-beta to R2X was measured in the absence and presence of increasing concentrations of lipoprotein purified from the plasma of an individual with <1 ng/ml TGF-beta in plasma (individual I, Table 1). If the lipoprotein-associated fraction of TGF-beta is unavailable for binding, lipoproteins prepared from an individual with a very low plasma concentration of TGF-beta would be expected to reduce the binding of recombinant active TGF-beta to its receptors. The half maximal (ka) binding of recombinant TGF-beta to the recombinant extracellular domain of the type II TGF-beta receptor was previously determined to be 17±3 ng/ml (R2X; Grainger et al., Nature, 270, 460 (1994); Grainger et al., Clin. Chim. Acta, 235, 11 (1995)).
To measure the binding of TGF-beta to its receptor, the recombinant extracellular domain of the type II TGF-beta receptor (R2X), was coated onto ELISA plates (1 μg/well, Maxisorp plates, Gibco BRL). Wells were washed 3 times quickly in TBS and blocked with TBS containing 3% bovine serum albumin (BSA, fatty-acid free; Sigma) for 30 minutes. […] The amount of bound TGF-beta was detected with antibody BDA5 (R&D Systems) as previously described by Grainger et al., Clin. Chim. […]

[9] = test system: mink lung epithelial (MvLu) cells; experiment: Inhibition of MvLu cell proliferation; assay type: cell-based
Excerpt: It has previously been shown that TGF-beta inhibits the proliferation of mink lung epithelial (MvLu) cells in culture. […] J. Physiol., 265, C571 (1993). […] Addition of lipoprotein purified from the plasma of individual I caused a dose-dependent increase in the ID50 of TGF-beta.

[10] = TNF-alpha (20 ng/ml) and tamoxifen (5 μM) simultaneously

T1 sequence (P37173 23-166 limits assumed): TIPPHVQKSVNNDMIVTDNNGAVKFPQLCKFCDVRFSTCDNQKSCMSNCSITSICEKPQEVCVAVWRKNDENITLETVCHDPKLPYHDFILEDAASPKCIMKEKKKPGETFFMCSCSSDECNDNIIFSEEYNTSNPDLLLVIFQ

Molecule: CC/C(=C(/c1ccc(I)cc1)c1ccc(OCCN(C)C)cc1)c1ccccc1 [4-iodotamoxifen]
covalent (hepatic) DNA adducts [1]: absence of DNA adducts

Molecule: CC(=O)Oc1ccccc1C(=O)[O-].CC(=O)Oc1ccccc1C(=O)[O-].[Cu+2] [Cu aspirinate, copper II (acetyl salicylate)2]
potency at stimulating TGF-beta relative to aspirin (TGF-beta [2]): almost two orders of magnitude more potent

Molecule: CC/C(=C(\c1ccccc1)c1ccc(OCCN(C)C)cc1)c1ccccc1 [TMX, trans-2-[4-(1,2-diphenyl-1-butenyl)phenoxy]-N,N-dimethylethylamine]
% Lesion Suppression (apoE knockout mice): 99* % | HDL-cholesterol ([3]; Day 10): 0.77 ± 0.04 mM | LDL-cholesterol ([3]; Day 10): 4.16 ± 0.25 mM | Lipoprotein(a) ([3]; Day 10): 42.4 ± 9.5 mg/dL | Plasma PAI-I antigen ([3]; Day 10): 35.9 ± 5.4 ng/mL | Total plasma triglycerides ([3]; Day 10): 2.28 ± 0.35 mM | VLDL-cholesterol ([3]; Day 10): 0.84 ± 0.11 mM | Total plasma cholesterol ([3]; Day 10, mean ± standard error, 15 patients): 5.95 ± 0.29 mM | concentration of HDL-cholesterol, change ([3]; after 10 days): unchanged | concentration of LDL-cholesterol, change ([3]; after 10 days): unchanged | decrease in total plasma cholesterol below baseline ([3]; after 10 days): 6% | reduction of cholesterol in the VLDL fraction below baseline ([3]; after 10 days): 18% | lowering of total plasma triglyceride concentration ([3]; after 10 days, not statistically significant (p=0.22)): 18% | decrease in plasma concentration of Lp(a) ([3]; day 3 vs baseline): 27% | reduction in Lp(a) concentration ([3]; day 10 vs baseline): 31% | inhibition at 5 µM (NFkB; Homo sapiens, read-out: inhibition of TNF-alpha-induced NFkB activity): 86 ± 12% | NFkB translocated to the nucleus (NFkB; [10]): less than 10% | stimulation of NFkB activity (NFkB; [10]): less than 3 fold | change in NFkB activity (NFkB; tamoxifen alone): no detectable change | long-term carcinogenicity [1]: liver carcinogenicity | lowering of VLDL [4]: seven fold | Plasma (a + 1) TGF-β, Method (A) (TGF-beta [5]; Day 10, BDA19/BDA5 sandwich ELISA): 7.7 ± 1.5 ng/mL | Plasma (a + 1) TGF-β, Method (E) (TGF-beta [5]; Day 10, BioTrak, acid alone): 2.3 ± 0.1 ng/mL | Plasma (a + 1) TGF-β, Method (D) (TGF-beta [5]; Day 10, BioTrak, acid/urea): 2.4 ± 0.1 ng/mL | Plasma (a + 1) TGF-β, Method (F) (TGF-beta [5]; Day 10, Genzyme, acid/urea): 5.2 ± 0.3 ng/mL | Plasma (a + 1) TGF-β, Method (G) (TGF-beta [5]; Day 10, Promega, acid alone): 0.2 ± 0.1 ng/mL | Plasma (a + 1) TGF-β, Method (C) (TGF-beta [5]; Day 10, Quantikine, acid alone): 0.62 ± 0.07 ng/mL | Plasma (a + 1) TGF-β, Method (B) (TGF-beta [5]; Day 10, Quantikine, acid/urea): 1.2 ± 0.2 ng/mL | change in plasma (a + 1) TGF-β, Method (A) (TGF-beta [5]; Day 10 vs Day 0): (+24%) | change in plasma (a + 1) TGF-β, Method (B) (TGF-beta [5]; Day 10 vs Day 0): (+71%) | change in plasma (a + 1) TGF-β, Method (C) (TGF-beta [5]; Day 10 vs Day 0): (+148%) | change in plasma (a + 1) TGF-β, Method (D) (TGF-beta [5]; Day 10 vs Day 0): (+20%) | change in plasma (a + 1) TGF-β, Method (E) (TGF-beta [5]; Day 10 vs Day 0): (+29%) | change in plasma (a + 1) TGF-β, Method (F) (TGF-beta [5]; Day 10 vs Day 0): (+59%) | change in plasma (a + 1) TGF-β, Method (G) (TGF-beta [5]; Day 10 vs Day 0): (+100%) | proportion of plasma TGF-beta that is lipoprotein-associated (TGF-beta [5]; after 10 days of TMX therapy, Quantikine ELISA): 25±3% | median increase in (a+1) TGF-beta (TGF-beta [5]; by day 10): 59%

Molecule: CN(C)CCOc1ccc(/C(=C(/CCCl)c2ccccc2)c2ccccc2)cc1 [Toremifene, toremifene]
covalent (hepatic) DNA adducts [1]: very low level | long-term carcinogenicity [1]: non-carcinogenic

Molecule: C[C@@H]1C[C@H]2[C@@H]3CCC4=CC(=O)C=C[C@]4(C)[C@@]3(F)[C@@H](O)C[C@]2(C)[C@@]1(O)C(=O)CO [dexamethasone]
elevation of expression of the CAT gene (GR): 3.7±0.7 fold

Molecule: CC/C(=C(\c1ccc(I)cc1)c1ccc(OCCN2CCCC2)cc1)c1ccccc1 [idoxifene, (E)-1-[4-[2-(N-pyrrolidino)ethoxy]phenyl]-1-(4-iodophenyl)-2-phenyl-1-butene]
residual estrogenic activity compared with TMX [6]: reduced residual estrogenic activity | covalent (hepatic) DNA adducts [1]: absence of DNA adducts

NFkB translocated to the nucleus (NFkB; 20 ng/ml, 6 hours at 37° C.): > 80% | increase in NFkB activity (NFkB; 20 ng/ml, 6 hours, luciferase reporter): 19 fold
Molecule: TNF-alpha

apparent ka for TGF-beta binding to R2X [8]: 42 ± 6 ng/mL
Molecule: recombinant TGF-beta: recombinant active TGF-beta1 (R&D Systems)
half maximal (ka) binding of recombinant TGF-beta to R2X [7]: 17 ± 3 ng/mL | MvLu cell ID50 ([9]; 3 mM total cholesterol lipoprotein added, maximal): 0.52 ± 0.08 ng/mL | MvLu cell ID50 ([9]; no lipoprotein, n=6): 0.12 ± 0.04 ng/mL
